# Measurements taken from the kinase profiling compilation of Christmann-Franck et al. (2016).
# Columns and labels:
# Assay in all cases: radiometric filter-binding kinase assay, Kinase HotSpot
# Conditions in all cases: compound 0.5 µM; ATP 10 µM
# RAF1 (human) = RAF1 (human) (UniProt P04049)
# HIPK1 (human) = HIPK1 (human) (UniProt Q86Z02)
# PBK (human) = PBK (human) (UniProt Q96KB5)
# ULK1 (human) = ULK1 (human) (UniProt O75385)
# BTK (human) = BTK (human) (UniProt Q06187)
# EPHB3 (human) = EPHB3 (human) (UniProt P54753)
# GSK3B (human) = GSK3B (human) (UniProt P49841)
# PIM3 (human) = PIM3 (human) (UniProt Q86V86)
# FGFR3 (human) = FGFR3 (human) (UniProt P22607)
# MERTK (human) = MERTK (human) (UniProt Q12866)
# DYRK1A (human) = DYRK1A (human) (UniProt Q13627)
# MAP4K4 (human) = MAP4K4 (human) (UniProt O95819)
# MAP4K4 (human), sequence (O95819 whole entry, looked up): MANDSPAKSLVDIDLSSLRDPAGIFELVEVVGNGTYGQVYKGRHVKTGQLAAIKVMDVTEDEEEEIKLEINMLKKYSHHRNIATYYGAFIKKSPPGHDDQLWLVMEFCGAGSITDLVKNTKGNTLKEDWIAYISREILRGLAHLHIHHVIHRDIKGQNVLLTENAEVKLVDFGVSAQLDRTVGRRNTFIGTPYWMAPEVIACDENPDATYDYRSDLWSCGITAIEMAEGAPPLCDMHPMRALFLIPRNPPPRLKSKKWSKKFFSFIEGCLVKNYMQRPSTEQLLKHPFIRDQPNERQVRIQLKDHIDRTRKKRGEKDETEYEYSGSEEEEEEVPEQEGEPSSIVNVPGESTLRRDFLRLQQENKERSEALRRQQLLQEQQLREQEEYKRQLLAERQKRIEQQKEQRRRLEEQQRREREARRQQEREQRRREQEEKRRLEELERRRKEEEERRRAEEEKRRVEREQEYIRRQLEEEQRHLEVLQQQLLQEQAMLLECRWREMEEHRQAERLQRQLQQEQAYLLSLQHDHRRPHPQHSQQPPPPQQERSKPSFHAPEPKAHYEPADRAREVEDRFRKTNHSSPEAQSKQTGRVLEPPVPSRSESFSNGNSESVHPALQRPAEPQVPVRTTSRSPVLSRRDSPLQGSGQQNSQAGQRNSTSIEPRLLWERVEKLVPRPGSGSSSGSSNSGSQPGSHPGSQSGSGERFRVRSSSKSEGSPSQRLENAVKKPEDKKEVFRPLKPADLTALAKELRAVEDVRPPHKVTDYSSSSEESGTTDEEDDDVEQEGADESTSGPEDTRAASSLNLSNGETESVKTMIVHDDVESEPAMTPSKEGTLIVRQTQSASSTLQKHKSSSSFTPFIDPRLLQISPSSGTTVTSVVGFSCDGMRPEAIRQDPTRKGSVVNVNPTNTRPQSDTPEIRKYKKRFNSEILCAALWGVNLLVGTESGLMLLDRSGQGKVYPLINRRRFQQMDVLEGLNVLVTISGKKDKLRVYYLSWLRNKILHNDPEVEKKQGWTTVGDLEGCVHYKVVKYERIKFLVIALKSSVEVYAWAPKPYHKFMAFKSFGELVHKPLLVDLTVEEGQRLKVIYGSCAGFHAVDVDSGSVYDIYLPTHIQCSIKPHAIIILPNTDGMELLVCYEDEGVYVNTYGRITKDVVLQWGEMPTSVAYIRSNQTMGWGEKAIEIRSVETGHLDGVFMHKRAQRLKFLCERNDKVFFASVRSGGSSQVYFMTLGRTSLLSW
# PIM1 (human) = PIM1 (human) (UniProt P11309)
# PRKACA (human) = PRKACA (human) (UniProt P17612)
# CAMK2G (human) = CAMK2G (human) (UniProt Q13555)
# DYRK3 (human) = DYRK3 (human) (UniProt O43781)
# PLK3 (human) = PLK3 (human) (UniProt Q9H4B4)
# WEE1 (human) = WEE1 (human) (UniProt P30291)
# OXSR1 (human) = OXSR1 (human) (UniProt O95747)
# MARK3 (human) = MARK3 (human) (UniProt P27448)
# MUSK (human) = MUSK (human) (UniProt O15146)
# MUSK (human), sequence (O15146 whole entry, looked up): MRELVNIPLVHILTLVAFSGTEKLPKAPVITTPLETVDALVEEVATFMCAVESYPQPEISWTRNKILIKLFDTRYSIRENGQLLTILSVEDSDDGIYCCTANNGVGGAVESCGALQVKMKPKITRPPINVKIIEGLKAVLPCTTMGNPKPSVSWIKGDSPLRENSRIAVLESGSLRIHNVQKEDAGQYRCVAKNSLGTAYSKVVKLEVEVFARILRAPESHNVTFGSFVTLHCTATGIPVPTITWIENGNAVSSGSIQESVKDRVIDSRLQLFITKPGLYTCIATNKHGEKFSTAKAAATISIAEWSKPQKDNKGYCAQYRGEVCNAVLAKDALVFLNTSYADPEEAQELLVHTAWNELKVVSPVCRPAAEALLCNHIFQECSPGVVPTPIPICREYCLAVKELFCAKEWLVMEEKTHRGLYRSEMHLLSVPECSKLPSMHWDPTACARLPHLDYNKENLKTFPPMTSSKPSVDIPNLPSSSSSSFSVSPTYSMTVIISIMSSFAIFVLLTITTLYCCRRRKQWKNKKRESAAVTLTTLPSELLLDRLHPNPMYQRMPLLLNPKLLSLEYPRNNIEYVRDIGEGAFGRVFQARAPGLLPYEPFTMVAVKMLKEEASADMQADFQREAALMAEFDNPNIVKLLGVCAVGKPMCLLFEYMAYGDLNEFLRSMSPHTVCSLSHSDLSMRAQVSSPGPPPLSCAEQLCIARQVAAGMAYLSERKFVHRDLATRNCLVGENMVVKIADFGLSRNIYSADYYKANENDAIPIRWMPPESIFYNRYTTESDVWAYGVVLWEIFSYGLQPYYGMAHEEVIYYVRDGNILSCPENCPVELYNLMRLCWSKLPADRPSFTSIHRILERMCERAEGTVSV
# MINK1 (human) = MINK1 (human) (UniProt Q8N4C8)
# NUAK1 (human) = NUAK1 (human) (UniProt O60285)
# CSNK1G1 (human) = CSNK1G1 (human) (UniProt Q9HCP0)
# CSNK1G2 (human) = CSNK1G2 (human) (UniProt P78368)
# CSNK1G2 (human), sequence (P78368 whole entry, looked up): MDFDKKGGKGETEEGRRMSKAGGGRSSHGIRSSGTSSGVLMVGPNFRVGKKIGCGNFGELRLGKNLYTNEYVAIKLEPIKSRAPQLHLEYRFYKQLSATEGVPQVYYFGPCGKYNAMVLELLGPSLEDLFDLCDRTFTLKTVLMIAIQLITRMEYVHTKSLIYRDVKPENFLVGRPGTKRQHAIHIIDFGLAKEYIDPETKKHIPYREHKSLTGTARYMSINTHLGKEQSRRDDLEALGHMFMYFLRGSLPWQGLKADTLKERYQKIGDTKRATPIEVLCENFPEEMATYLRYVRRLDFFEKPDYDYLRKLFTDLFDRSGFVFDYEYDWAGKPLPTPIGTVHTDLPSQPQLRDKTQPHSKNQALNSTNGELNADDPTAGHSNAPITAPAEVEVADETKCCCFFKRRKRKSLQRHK
# SRMS (human) = SRMS (human) (UniProt Q9H3Y6)
# FGFR4 (human) = FGFR4 (human) (UniProt P22455)
# MYLK2 (human) = MYLK2 (human) (UniProt Q9H1R3)
# PNCK (human) = PNCK (human) (UniProt Q6P2M8)
# PNCK (human), sequence (Q6P2M8 whole entry, looked up): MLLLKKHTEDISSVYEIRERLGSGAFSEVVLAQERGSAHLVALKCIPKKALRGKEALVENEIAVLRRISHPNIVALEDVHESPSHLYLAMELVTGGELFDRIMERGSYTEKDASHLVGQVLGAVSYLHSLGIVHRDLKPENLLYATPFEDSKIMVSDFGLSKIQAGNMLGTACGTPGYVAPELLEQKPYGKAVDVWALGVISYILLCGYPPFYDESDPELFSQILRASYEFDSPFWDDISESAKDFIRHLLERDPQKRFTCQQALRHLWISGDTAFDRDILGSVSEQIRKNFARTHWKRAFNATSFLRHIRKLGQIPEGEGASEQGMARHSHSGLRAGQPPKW
# ITK (human) = ITK (human) (UniProt Q08881)
# STK25 (human) = STK25 (human) (UniProt O00506)
# EPHA8 (human) = EPHA8 (human) (UniProt P29322)
# CAMK2A (human) = CAMK2A (human) (UniProt Q9UQM7)
# CSNK2A2 (human) = CSNK2A2 (human) (UniProt P19784)
# CSNK2A2 (human), sequence (P19784 whole entry, looked up): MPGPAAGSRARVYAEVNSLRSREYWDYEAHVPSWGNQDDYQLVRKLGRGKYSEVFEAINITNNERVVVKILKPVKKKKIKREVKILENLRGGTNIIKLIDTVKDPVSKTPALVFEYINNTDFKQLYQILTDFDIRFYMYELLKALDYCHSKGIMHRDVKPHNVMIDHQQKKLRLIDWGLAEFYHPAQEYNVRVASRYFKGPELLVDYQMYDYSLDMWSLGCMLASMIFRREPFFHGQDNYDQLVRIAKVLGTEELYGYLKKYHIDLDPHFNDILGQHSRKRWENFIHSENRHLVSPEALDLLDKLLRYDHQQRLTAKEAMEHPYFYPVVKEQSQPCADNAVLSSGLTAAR
# NEK7 (human) = NEK7 (human) (UniProt Q8TDX7)
# JAK3 JH1 JH2 (human) = JAK3 JH1 JH2 (human) (UniProt P52333)
# JAK3 JH1 JH2 (human), sequence (P52333 whole entry, looked up): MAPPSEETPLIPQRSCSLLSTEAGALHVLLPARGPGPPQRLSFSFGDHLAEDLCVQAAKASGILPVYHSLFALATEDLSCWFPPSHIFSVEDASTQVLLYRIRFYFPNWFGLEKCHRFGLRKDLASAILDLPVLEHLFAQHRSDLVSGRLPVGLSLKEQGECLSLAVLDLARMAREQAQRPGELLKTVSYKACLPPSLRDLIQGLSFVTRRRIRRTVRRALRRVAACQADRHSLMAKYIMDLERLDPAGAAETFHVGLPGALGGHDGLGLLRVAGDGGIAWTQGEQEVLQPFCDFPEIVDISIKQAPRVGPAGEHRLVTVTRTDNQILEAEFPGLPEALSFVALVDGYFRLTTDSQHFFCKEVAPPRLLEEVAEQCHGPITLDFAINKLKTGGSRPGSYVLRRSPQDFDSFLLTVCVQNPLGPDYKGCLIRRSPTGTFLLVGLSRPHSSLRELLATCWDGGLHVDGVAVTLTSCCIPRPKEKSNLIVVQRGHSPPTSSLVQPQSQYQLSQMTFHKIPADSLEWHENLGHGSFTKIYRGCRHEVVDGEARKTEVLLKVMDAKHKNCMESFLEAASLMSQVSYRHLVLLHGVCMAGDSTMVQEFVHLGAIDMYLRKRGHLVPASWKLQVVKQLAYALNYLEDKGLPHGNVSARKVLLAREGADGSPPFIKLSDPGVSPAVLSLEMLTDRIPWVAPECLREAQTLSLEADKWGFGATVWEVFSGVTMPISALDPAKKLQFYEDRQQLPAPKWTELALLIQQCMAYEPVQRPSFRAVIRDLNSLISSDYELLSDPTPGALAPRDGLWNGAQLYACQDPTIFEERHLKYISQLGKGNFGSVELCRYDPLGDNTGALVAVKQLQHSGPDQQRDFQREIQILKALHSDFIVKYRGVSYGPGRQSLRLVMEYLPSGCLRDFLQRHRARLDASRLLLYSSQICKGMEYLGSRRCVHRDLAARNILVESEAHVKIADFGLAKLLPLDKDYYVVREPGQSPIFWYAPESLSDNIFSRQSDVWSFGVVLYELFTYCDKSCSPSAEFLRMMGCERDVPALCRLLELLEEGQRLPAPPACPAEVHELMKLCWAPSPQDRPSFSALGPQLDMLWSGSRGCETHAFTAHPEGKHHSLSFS
# MAP3K5 (human) = MAP3K5 (human) (UniProt Q99683)
# STK33 (human) = STK33 (human) (UniProt Q9BYT3)
# DMPK (human) = DMPK (human) (UniProt Q09013)
# NEK3 (human) = NEK3 (human) (UniProt P51956)
# EPHA1 (human) = EPHA1 (human) (UniProt P21709)
# CSF1R (human) = CSF1R (human) (UniProt P07333)
# RAF1 (human), sequence (P04049 whole entry, looked up): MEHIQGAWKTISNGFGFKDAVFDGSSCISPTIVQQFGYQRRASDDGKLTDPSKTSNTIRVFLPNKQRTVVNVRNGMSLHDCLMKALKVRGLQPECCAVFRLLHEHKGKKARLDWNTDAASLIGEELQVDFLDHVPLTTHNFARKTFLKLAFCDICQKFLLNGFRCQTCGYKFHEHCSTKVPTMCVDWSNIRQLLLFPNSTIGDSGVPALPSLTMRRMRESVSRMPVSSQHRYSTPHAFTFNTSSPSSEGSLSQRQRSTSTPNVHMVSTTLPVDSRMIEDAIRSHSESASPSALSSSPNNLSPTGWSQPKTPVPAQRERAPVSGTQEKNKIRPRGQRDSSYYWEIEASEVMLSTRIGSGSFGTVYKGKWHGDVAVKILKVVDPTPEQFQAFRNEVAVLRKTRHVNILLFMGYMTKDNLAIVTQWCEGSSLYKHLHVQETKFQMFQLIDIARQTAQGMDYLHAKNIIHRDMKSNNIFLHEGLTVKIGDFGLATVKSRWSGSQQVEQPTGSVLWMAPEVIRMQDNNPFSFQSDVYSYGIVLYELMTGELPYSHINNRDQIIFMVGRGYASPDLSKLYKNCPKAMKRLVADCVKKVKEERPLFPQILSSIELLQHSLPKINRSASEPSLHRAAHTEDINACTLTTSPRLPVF
smiles,measurement,setting,value
CN(C)C[C@H]1CCn2c(c(C3=C(c4cn(C)c5ccccc45)C(=O)NC3=O)c3ccccc32)C1,residual activity,RAF1 (human),96.6%
same,residual activity,HIPK1 (human),101%
same,residual activity,PBK (human),101%
same,residual activity,ULK1 (human),98.9%
same,residual activity,BTK (human),103%
same,residual activity,EPHB3 (human),105%
same,residual activity,GSK3B (human),11.2%
same,residual activity,PIM3 (human),83.1%
same,residual activity,FGFR3 (human),96.3%
same,residual activity,MERTK (human),95.4%
same,residual activity,DYRK1A (human),88.7%
same,residual activity,MAP4K4 (human),82.5%
same,residual activity,PIM1 (human),63.2%
same,residual activity,PRKACA (human),87.2%
same,residual activity,CAMK2G (human),100%
same,residual activity,DYRK3 (human),102%
same,residual activity,PLK3 (human),100%
same,residual activity,WEE1 (human),101%
same,residual activity,OXSR1 (human),98.4%
same,residual activity,MARK3 (human),92.4%
same,residual activity,MUSK (human),85.6%
same,residual activity,MINK1 (human),97.8%
same,residual activity,NUAK1 (human),90.9%
same,residual activity,CSNK1G1 (human),97%
same,residual activity,CSNK1G2 (human),97%
same,residual activity,SRMS (human),109%
same,residual activity,FGFR4 (human),89.6%
same,residual activity,MYLK2 (human),74.2%
same,residual activity,PNCK (human),95.2%
same,residual activity,ITK (human),94.9%
same,residual activity,STK25 (human),96%
same,residual activity,EPHA8 (human),102%
same,residual activity,CAMK2A (human),100%
same,residual activity,CSNK2A2 (human),92.4%
same,residual activity,NEK7 (human),100%
same,residual activity,JAK3 JH1 JH2 (human),89.4%
same,residual activity,MAP3K5 (human),107%
same,residual activity,STK33 (human),94.8%
same,residual activity,DMPK (human),106%
same,residual activity,NEK3 (human),99.4%
same,residual activity,EPHA1 (human),100%
same,residual activity,CSF1R (human),98.1%
O=C(Nc1cccc(Nc2cc(Nc3cccc(C(F)(F)F)c3)ncn2)c1)C1CC1,residual activity,RAF1 (human),98.4%
same,residual activity,HIPK1 (human),99.7%
same,residual activity,PBK (human),103%
same,residual activity,ULK1 (human),100%
same,residual activity,BTK (human),101%
same,residual activity,EPHB3 (human),87.9%
same,residual activity,GSK3B (human),114%
same,residual activity,PIM3 (human),133%
same,residual activity,FGFR3 (human),102%
same,residual activity,MERTK (human),97.3%
same,residual activity,DYRK1A (human),104%
same,residual activity,MAP4K4 (human),102%
same,residual activity,PIM1 (human),104%
same,residual activity,PRKACA (human),102%
same,residual activity,CAMK2G (human),96.1%
same,residual activity,DYRK3 (human),101%
same,residual activity,PLK3 (human),99.1%
same,residual activity,WEE1 (human),94%
same,residual activity,OXSR1 (human),110%
same,residual activity,MARK3 (human),105%
same,residual activity,MUSK (human),113%
same,residual activity,MINK1 (human),95.9%
same,residual activity,NUAK1 (human),102%
same,residual activity,CSNK1G1 (human),94.8%
same,residual activity,CSNK1G2 (human),99.1%
same,residual activity,SRMS (human),95.2%
same,residual activity,FGFR4 (human),102%
same,residual activity,MYLK2 (human),98.9%
same,residual activity,PNCK (human),101%
same,residual activity,ITK (human),97.2%
same,residual activity,STK25 (human),97.4%
same,residual activity,EPHA8 (human),103%
same,residual activity,CAMK2A (human),104%
same,residual activity,CSNK2A2 (human),94.9%
same,residual activity,NEK7 (human),97.8%
same,residual activity,JAK3 JH1 JH2 (human),106%
same,residual activity,MAP3K5 (human),104%
same,residual activity,STK33 (human),105%
same,residual activity,DMPK (human),99.7%
same,residual activity,NEK3 (human),94.4%
same,residual activity,EPHA1 (human),92.9%
same,residual activity,CSF1R (human),99.9%
CC(C)c1nn(-c2c(Cl)cccc2Cl)c2nc(Cc3ccc(OCCO)cc3)nc(O)c12,residual activity,RAF1 (human),95.8%
same,residual activity,HIPK1 (human),102%
same,residual activity,PBK (human),101%
same,residual activity,ULK1 (human),125%
same,residual activity,BTK (human),100%
same,residual activity,EPHB3 (human),92.6%
same,residual activity,GSK3B (human),47.1%
same,residual activity,PIM3 (human),105%
same,residual activity,FGFR3 (human),97%
same,residual activity,MERTK (human),96.1%
same,residual activity,DYRK1A (human),105%
same,residual activity,MAP4K4 (human),84.5%
same,residual activity,PIM1 (human),99%
same,residual activity,PRKACA (human),99.8%
same,residual activity,CAMK2G (human),98.9%
same,residual activity,DYRK3 (human),99%
same,residual activity,PLK3 (human),99.1%
same,residual activity,WEE1 (human),109%
same,residual activity,OXSR1 (human),93.8%
same,residual activity,MARK3 (human),92.2%
same,residual activity,MUSK (human),96.2%
same,residual activity,MINK1 (human),97.1%
same,residual activity,NUAK1 (human),96.9%
same,residual activity,CSNK1G1 (human),101%
same,residual activity,CSNK1G2 (human),95.7%
same,residual activity,SRMS (human),91.5%
same,residual activity,FGFR4 (human),91.5%
same,residual activity,MYLK2 (human),96.6%
same,residual activity,PNCK (human),94.3%
same,residual activity,ITK (human),98.6%
same,residual activity,STK25 (human),68.1%
same,residual activity,EPHA8 (human),102%
same,residual activity,CAMK2A (human),106%
same,residual activity,CSNK2A2 (human),92.2%
same,residual activity,NEK7 (human),94%
same,residual activity,JAK3 JH1 JH2 (human),103%
same,residual activity,MAP3K5 (human),119%
same,residual activity,STK33 (human),97.5%
same,residual activity,DMPK (human),99.3%
same,residual activity,NEK3 (human),87.3%
same,residual activity,EPHA1 (human),95%
same,residual activity,CSF1R (human),94.6%
Cn1sc(=O)n(Cc2ccccc2)c1=O,residual activity,RAF1 (human),97.2%
same,residual activity,HIPK1 (human),92.3%
same,residual activity,PBK (human),107%
same,residual activity,ULK1 (human),98.9%
same,residual activity,BTK (human),103%
same,residual activity,EPHB3 (human),91.3%
same,residual activity,GSK3B (human),114%
same,residual activity,PIM3 (human),120%
same,residual activity,FGFR3 (human),100%
same,residual activity,MERTK (human),92.8%
same,residual activity,DYRK1A (human),92.6%
same,residual activity,MAP4K4 (human),97%
same,residual activity,PIM1 (human),93%
same,residual activity,PRKACA (human),105%
same,residual activity,CAMK2G (human),90.1%
same,residual activity,DYRK3 (human),108%
same,residual activity,PLK3 (human),99.1%
same,residual activity,WEE1 (human),92.3%
same,residual activity,OXSR1 (human),91.1%
same,residual activity,MARK3 (human),97.1%
same,residual activity,MUSK (human),103%
same,residual activity,MINK1 (human),88.7%
same,residual activity,NUAK1 (human),102%
same,residual activity,CSNK1G1 (human),95.2%
same,residual activity,CSNK1G2 (human),95%
same,residual activity,SRMS (human),96.2%
same,residual activity,FGFR4 (human),97.2%
same,residual activity,MYLK2 (human),101%
same,residual activity,PNCK (human),98.7%
same,residual activity,ITK (human),93.2%
same,residual activity,STK25 (human),96.2%
same,residual activity,EPHA8 (human),94.4%
same,residual activity,CAMK2A (human),106%
same,residual activity,CSNK2A2 (human),98.5%
same,residual activity,NEK7 (human),101%
same,residual activity,JAK3 JH1 JH2 (human),106%
same,residual activity,MAP3K5 (human),91.5%
same,residual activity,STK33 (human),101%
same,residual activity,DMPK (human),100%
same,residual activity,NEK3 (human),89.3%
same,residual activity,EPHA1 (human),106%
same,residual activity,CSF1R (human),98.6%
